Measured values from publication PMC7932521, “2-aminobenzimidazoles for leishmaniasis: From initial hit discovery to in vivo profiling” (PLoS Neglected Tropical Diseases, 2021).
In brackets after ≈: the same amount, converted by molar mass. Where two headings read alike, the source gives them in different places.

Columns and labels:
[1] = Mouse liver microsomal stability; format: in vitro ADME; details: for microsomal CLint at 0.5 μM: CD1, mouse, liver microsomes
Protocol: The metabolic stability of the compounds was evaluated in human (pool of 200 donors, XenoTech) and mouse liver microsomes (CD1 mouse, GIBCO). Test compounds were prepared at a concentration of 0.5 μM and incubated with 0.25 mg/mL liver microsomes at pH 7.4 and 37°C. The reaction was started by addition of NADPH at […]. Samples were taken at 0, 5, 10, 15, 20 and 30 minutes. The reaction was stopped by the addition of acetonitrile:methanol (1:1) containing an internal standard (tolbutamide at 50 nM). Compounds were quantified by liquid chromatography triple quadrupole mass spectrometry (LC-MS/MS). Peak area ratios (analyte/internal standard) were converted to % remaining using the area ratio at time 0 as 100%. Half-life (t1/2 = ln(2)/k) in minutes and intrinsic clearance (Clint = k x 1000/(0.25)) in μL/min/mg were calculated using a non-linear regression from % remaining versus incubation time. From this plot, the slope (k) was determined. The analysis conditions were: analytical column (Gemini C18, […], Phenomenex), electrospray ionization source (ESI) in positive and negative mode, mobile phase A (water + 0.1% formic acid) and B (acetonitrile + 0.1% formic acid), flow rate of 0.7 mL/min.

MRC-5 cytotoxicity = format: cell-based; details: human, MRC-5 cells; S1 Data
HEPG2 cytotoxicity = format: cell-based; details: human, HepG2 cells; S1 Data
Text: Supplement pntd.0009196.s001.xlsx, sheet "Complete Dataset" | column: HEPG2 CC50 (uM)

[2] = tested on: Leishmania infantum MHOM/MA(BE)/67/ITMAP263 amastigotes; assay: L. infantum intracellular amastigote assay in PMM; format: cell-based; details: for IC50: read-out: L. infantum IC50; for SI: selectivity index (CC50 / IC50): CC50 / L. infantum IC50
Protocol: (§1) Leishmania infantum MHOM/MA(BE)/67/ITMAP263 amastigotes were collected from the spleen of infected donor Golden hamsters. Primary peritoneal mouse macrophages (PMM) were used as host cells for in vitro assays. PMM were collected from Swiss mice after 2 days of peritoneal stimulation with a 2% suspension of potato starch and maintained in RPMI-1640 medium supplemented with 200 mM L-glutamine, antibiotics and 5% FCS at 37°C and 5% CO2. Promastigotes of L. infantum chagasi (luciferase) (MHOM/BR/2005/NLC) obtained as described in Reimão et al.,[27] were grown in M199 medium supplemented with 10% FCS, 0.25% hemin, 32 μg/ml hygromycin and 2% sterile human urine at 25°C and 5% CO2.
(§2) Stock solutions of the compounds at 20 mM were prepared in 100% DMSO. Next, the compounds were serially pre-diluted in DMSO followed by a further dilution in demineralized water to assure a final in-test DMSO concentration below 1%. The compounds were tested at 4-fold dilutions starting at 64 μM.
For the antileishmania in vitro assays, 3×10^4 PMM/well were seeded in 96-well plates. After 24h, 5×10^5 amastigotes/well were added and incubated for 2h at 37°C. Next, the compounds in 4-fold serial dilutions were added and the plates were further incubated for 5 days (37°C, 5% CO2). Parasite burdens were assessed using an inverted microscope after Giemsa staining. The results were expressed as percent reduction in parasite burdens compared to negative control wells (100% growth) and IC50 values were determined. Values represent the geometric mean of at least two independent experiments. Miltefosine was used as the positive control in all plates.

[3] = Experimental distribution coefficient (eLogD); format: physicochemical
Protocol: To determine the lipophilicity of the compounds, a methodology based on the retention time of molecules in reverse stationary phase (Ascentis RP-Amide HPLC column) was used. The chromatogram was obtained using LC-MS/MS. Test compounds were prepared at 1.0 μg/mL by adding the stock solution at (1:1) mobile phases A:B + internal standard at 200nM (A: 5% methanol in 10mM ammonium acetate pH 7.4, B: 100% methanol), DMSO concentration must be lower than 2%. […] The retention time (in minutes) of each of the eight standards was plotted against their LogD values. The resulting equation for the calibration curve (y = mx + b) was used to calculate the LogD values for the test compounds.

[4] = Parallel artificial membrane permeability assay (PAMPA); format: in vitro ADME; details: S1 Data; for Papp at 5 h, 10 μM: PAMPA, read-out: PAMPA Pe
Protocol: To determine the passive permeability of the compounds, a 96-well plate containing membranes pre-coated with lipids (Corning Gentest # 353015) was used. The solutions of the compounds were prepared by diluting the stock solutions (10mM) in phosphate buffered saline (PBS) pH 6.5 at a final concentration of 10μM. The solutions diluted in PBS pH 6.5 were then added to the donor portion of the plate (300 μl/well), while PBS pH 7.4 (200 μl/well) was added to the acceptor portion. The two portions of the plate were then coupled, and the system was incubated for 5 h at 37°C. At the end of the incubation, samples were collected from the donor and acceptor plates, and then added to plates containing quench solution (10% water and 90% methanol: acetonitrile (50:50) + 50 nM tolbutamide). The final concentrations of compounds in the donor, acceptor, and initial solution (T0) wells were analyzed using LC-MS/MS. The results were used to calculate an effective permeability (Pe) value. The PAMPA assay was performed in triplicate (n = 3).

[5] = tested on: PMM (Primary Mouse Macrophages); assay: Cytotoxicity on primary peritoneal mouse macrophages; format: cell-based; details: read-out: PMM IC50
Protocol: as §1, §2

Kinetic solubility = format: physicochemical; details: for solubility kinetic at 24 h: PBS buffer pH 7.4, aqueous buffer, kinetic from dmso stock, PBS pH 7.4, read-out: KS PBS - pH7.4
Protocol: The precipitates on the incubation plate were removed by centrifugation (15 min, 3000 rpm, r.t.); the compound concentration in the resulting supernatant was determined by LC-MS/MS. Results were calculated as the concentration of remaining compound in solution after incubation.

MRC-5 cells = assay: MRC-5 cytotoxicity; format: cell-based; details: S1 Data
[6] = pH 7.4, S1 Data, read-out: MLM CLint
[7] = Leishmania infantum, 120 h, intracellular amastigotes in PMM, 5 days
[8] = reverse stationary phase HPLC column (Ascentis RP-Amide), pH 7.4, S1 Data
[9] = intracellular amastigotes in PMM, 5 days

Molecule	CC50 (MRC-5 cytotoxicity)	IC50 [2, 7]	IC50 ([2]; Leishmania infantum, S1 Data)	Papp at 5 h, 10 μM [4]	IC50 ([5]; Mus musculus, Macrophage)	SI: selectivity index (CC50 / IC50) [2]	MLM CLint ([1]; S1 Data)	CC50 (MRC-5 cells)	IC50 ([2]; S1 Data)	IC50 [2, 9]	eLogD ([3]; S1 Data)	PAMPA Pe [4]	IC50 ([5]; S1 Data)	other results
N#Cc1ccc2nc(NC(=O)Cc3ccc(F)cc3F)n(CC(F)(F)F)c2c1 [Compound 24, Fc1cc(F)ccc1CC(Nc2nc(ccc(C#N)c3)c3n2CC(F)(F)F)=O]	> 64 µM	10 µM	10.2 µM	0.76 ×10⁻⁶ cm/s	16 µM									microsomal CLint at 0.5 μM [1, 6]: 20 µL/min/mg; microsomal CLint at 0.5 μM ([1]; pH 7.4, mouse liver microsome intrinsic clearance, read-out: MLM Clint): 19.6 µL/min/mg; CC50 (HEPG2 cytotoxicity): > 64 µM; chromatographic logD [3, 8]: 3.85
CC(C)(C)Cn1c(NC(=O)c2ccn[nH]2)nc2ccc(C#N)cc21 [Compound 34, O=C(Nc1nc(ccc(C#N)c2)c2n1CC(C)(C)C)c3ccn[nH]3]	> 64 µM	38 µM	38.3 µM	11.1 ×10⁻⁶ cm/s	50.8 µM	1								microsomal CLint at 0.5 μM [1, 6]: 47 µL/min/mg; CC50 (HEPG2 cytotoxicity): 16 µM; eLogD ([3]; experimental, pH 7.4): 3.6; chromatographic logD [3, 8]: 3.67
CC(C)(C)Cn1c(NC(=O)c2cccnc2)nc2ccc(C#N)cc21 [Compound 41, O=C(Nc1n(CC(C)(C)C)c(c2n1)cc(C#N)cc2)c3cccnc3]	> 64 µM	8.6 µM	8.57 µM	18 ×10⁻⁶ cm/s	16 µM	2	87 µL/min/mg							chromatographic logD [3, 8]: 3.9
COCCn1c(NC(=O)c2ccnn2C)nc2ccc(C#N)cc21 [Compound 50, O=C(c1ccnn1C)Nc2nc(ccc(C#N)c3)c3n2CCOC]	> 64 µM	47 µM	47 µM	14.7 ×10⁻⁶ cm/s	> 64 µM	1	98 µL/min/mg							solubility kinetic at 24 h (Kinetic solubility): 5.98 µg/mL (≈ 18.4 µM); KS PBS - pH 2 (Kinetic solubility): 7.77 ug/mL
Cn1nccc1C(=O)Nc1nc2cccnc2n1CC(C)(C)C [Compound 54, CC(Cn1c(NC(=O)c2n(C)ncc2)nc(c13)cccn3)(C)C]	43.7 µM	7.8 µM	7.75 µM	11.7 ×10⁻⁶ cm/s	32 µM	4	222 µL/min/mg							chromatographic logD [3, 8]: 4.04; chromatographic logD ([3]; reverse-phase HPLC retention (Ascentis RP-Amide column), experimental, pH 7.4): 4
Cn1nccc1C(=O)Nc1nc2cncnc2n1CC(F)(F)F [Compound 55, O=C(c1ccnn1C)Nc2nc(cncn3)c3n2CC(F)(F)F]	24.8 µM	4 µM	4.03 µM	13.6 ×10⁻⁶ cm/s	8 µM	2	24 µL/min/mg							solubility kinetic at 24 h (Kinetic solubility): 65 µg/mL (≈ 200 µM); KS PBS - pH 2 (Kinetic solubility): 64.44 ug/mL
CCCn1c(NC(=O)Cc2ccc(F)cc2)nc(c13)cc(C(=O)N4CCOCC4)cc3 [Compound 14]						1	<23 µL/min/mg	> 64 µM	57 µM	57 µM	3.05	7.26 10-6 cm/s	> 64 µM	MLM CLint ([1]; mouse liver microsome intrinsic clearance): 23 µL/min/mg
CCCn1c(NC(=O)Cc2ccc(F)cc2)nc(c13)cc(C(=O)N(C)OC)cc3 [Compound 15]						5	128 µL/min/mg	55.5 µM	12.7 µM	13 µM	3.31	9.07 10-6 cm/s	> 64 µM	eLogD ([3]; experimental, pH 7.4): 3.3
CCCn1c(NC(=O)Cc2ccc(F)cc2)nc(c13)cc(C(=O)NC4CC4)cc3 [Compound 12]						1	52 µL/min/mg	> 64 µM	45.2 µM	45 µM	3.50	13.10 10-6 cm/s	> 64 µM	eLogD ([3]; experimental, pH 7.4): 3.5
CCCn1c(NC(=O)Cc2ccc(F)cc2)nc(c13)cc(C(=O)NC)cc3 [Compound 11]						1	66 µL/min/mg	34.8 µM	> 64 µM		3.18	9.18 10-6 cm/s	> 64 µM	
CCCn1c(NC(=O)Cc2ccc(F)cc2)nc(c13)cc(C(=O)O)cc3 [Compound 10]						1		> 64 µM	> 64 µM		1.83	6.27 10-6 cm/s	> 64 µM	L. infantum IC50 [2, 9]: inactive
CCCn1c(NC(=O)Cc2ccc(F)cc2)nc(c13)cc(C(=O)OC)cc3 [Compound 9]						3	1253 µL/min/mg	18.7 µM	6.49 µM	6.5 µM	4.04	8.66 10-6 cm/s	16 µM	
O=C(Nc1n(C2CC2)c(c3n1)ccc(F)c3)Cc4ccc(Cl)cc4 [Compound 22]							380 µL/min/mg	21.9 µM	2.54 µM		3.98	17.70 10-6 cm/s	25.4 µM	
O=C(c1cc(nc(NC(=O)Cc2ccc(F)cc2)n3CCC)c3cc1)N4CCCC4 [Compound 13]						6	138 µL/min/mg	> 64 µM	9.79 µM	9.8 µM	3.99	7.92 10-6 cm/s	> 64 µM	eLogD ([3]; experimental, pH 7.4): 4.0
